Experiment [1] deals with T1, Gluconobacter oxydans DSM No. 4025 alcohol/aldehyde dehydrogenase Enzyme B, wild type, SEQ ID NO: 8 (Ketogulonicigenium vulgare, UniProt F9Y8N6).
T1 construct: 579 aa precursor with 23 aa signal peptide
T1 sequence (F9Y8N6 24-579): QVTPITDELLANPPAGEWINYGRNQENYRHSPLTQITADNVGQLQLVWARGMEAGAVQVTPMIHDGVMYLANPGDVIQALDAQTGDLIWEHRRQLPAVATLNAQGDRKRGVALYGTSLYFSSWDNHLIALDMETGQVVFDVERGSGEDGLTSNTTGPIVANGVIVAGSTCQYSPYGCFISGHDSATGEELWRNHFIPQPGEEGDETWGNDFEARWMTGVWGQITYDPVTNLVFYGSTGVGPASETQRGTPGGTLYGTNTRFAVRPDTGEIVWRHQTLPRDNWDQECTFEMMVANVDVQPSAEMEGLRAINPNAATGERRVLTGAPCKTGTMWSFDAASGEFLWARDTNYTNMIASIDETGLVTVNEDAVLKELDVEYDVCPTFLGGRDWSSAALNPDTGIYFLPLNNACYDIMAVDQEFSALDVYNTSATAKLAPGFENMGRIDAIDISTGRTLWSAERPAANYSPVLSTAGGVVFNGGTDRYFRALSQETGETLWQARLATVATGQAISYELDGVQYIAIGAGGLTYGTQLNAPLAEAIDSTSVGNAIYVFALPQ
Description: Kinetic properties of Enzyme B. Type of experiment: biochemical. The source says: Tables 11 and 12 summarizes the kinetic properties of chimera enzymes, Enzyme sA2 and Enzyme sB in comparison with Enzyme A and Enzyme B, respectively.

The test system of experiment [2] is Gluconobacter oxydans DSM No. 4025 AADH chimera Enzyme sB (Enzyme A residues 1-95, Enzyme B residues 96-180, Enzyme A residues 180-556; parents SEQ ID NO: …). Nature of the experiment: Kinetic properties of chimera Enzyme sB. Type of experiment: biochemical. The settings on record: read-out: Km (sorbitol). The text has this:
To further improve the chimeras, Enzyme A/B21, Enzyme A/B22, Enzyme A/B25 and Enzyme A/B31 in the view point of the preferable codon usage, the C-terminal two thirds consisting of Enzyme B residues were replaced with the C-terminal two thirds consisting of Enzyme A residues. Enzyme A/B21, Enzyme A/B22, Enzyme A/B25 and Enzyme A/B31 genes were used for constructing new chimera genes of Enzyme sA21 (Enzyme A ammo acid residue Nos. 1-128, Enzyme B amino acid residue Nos. 129-180 and Enzyme A amino acid residue Nos. 180-556), Enzyme sA22 (Enzyme A amino acid residue Nos. 1-125, Enzyme B amino acid residue Nos. 126-180 and Enzyme A amino acid residue Nos. 180-556), Enzyme sA2 (Enzyme A amino acid residue Nos. 1-135, Enzyme B amino acid residue Nos. 136-180 and Enzyme A amino acid residue Nos. 180-556) and Enzyme sB (Enzyme A amino acid residue Nos. 1-95, Enzyme B amino acid residue Nos. 96-180 and Enzyme A amino acid residue Nos. 180-556) (FIG. 4). […]

Here are results for 2 molecules from US6730503B1 (Roche Vitamins Inc., priority 1996, dated 2004).

Usually Ki stands for a dissociation constant, usually derived from enzyme kinetics or from competition with a known ligand. Consider `OCC1(O)OC[C@H](O)[C@@H](O)[C@@H]1O` (stereo partly drawn) [sorbose, L-sorbose], for which, in experiment [1], the Ki was 100 mM.
For orientation: Km means the substrate concentration at which the rate is half of its maximum. Take `OC[C@@H](O)[C@@H](O)[C@H](O)[C@@H](O)CO` [sorbitol, D-sorbitol]: the Km in experiment [2] came out at 61 mM.
